Numbers after ± are expanded uncertainties.
Legend:
[1] = Molar enthalpy of transition or fusion; settings: Crystal; DSC
[2] = Crystal; DTA

Molar enthalpy of transition or fusion [1]: 3.94 ± 0.21 kcal/mol | Normal melting temperature [2]: 108.60 ± 0.5 °C
SMILES: Cc1cc(C)[nH]n1 [3,5-dimethylpyrazole]

From the NIST ThermoML archive (doi:10.1016/j.jct.2017.02.011)
